Experimental findings from publication PMC6481345, “A novel anti-melanoma SRC-family kinase inhibitor” (Oncotarget, 2019) are described below.

Entries after “also recorded” stand apart in the source; their conditions may differ. Where two headings read alike, the source gives them in different places.

Type in all cases: cell-based, human
Assay [1] relates to pY416 SFK. Nature of the assay: Western blot, auto-phosphorylated Y416 of SFK. As to conditions: melanoma cell lines; SAB298 0.5 µM, 5 hrs. As to the method: The effect of SAB298 on a panel of 36 recombinant kinases, was screed with the radioisotope filter binding assay employing 10 concentrations of the compound with 10 µM ATP (Reaction Biology Corporation, Malvern, PA). In addition, we tested the endogenous kinome response to SAB298 (0.05 µM, 0.5 µM and 5 µM) in lysates from two melanoma cell lines (YUSIV and YUSIK) employing the KiNativ® platform (ActivX Biosciences Inc., La Jolla, CA). KiNativ® is a robust, high performance mass spectrometry (LC-MS^2) assay that uses biotinylated probes to measure relevant changes in the affinity to the ATP-binding sites of 205 native kinases as a function of cellular context. We also validated SAB298 effect on the activity of SRC-family kinases by probing for phosphorylated Y416, the marker of activated SFKs, with anti-IEDNEpYTAR antibodies (also known as Y419, #2101, Cell Signaling Technology, Beverly, MA). In some cases the cells were incubated overnight with 20 µM proteasome inhibitor MG-132 (CAS 133407-82-6, Millipore Sigma, Burlington, MA) to rescue degradation.
We used standard techniques to identify changes in intracellular signaling in response to various treatments. […] Protein concentrations were measured with the BioRad kit (Bio-Rad Laboratories, Hercules, CA), SDS sample buffer was added, extracts were heated at 95°C, sonicated and centrifuged. […]

Assay [2] has as its system melanoma cells. In words: Apoptosis (annexin V staining and caspase activity). The conditions noted are these: 0.5 µM and 1 µM, 24 hrs. As to the method:
The rate of apoptosis was measured using the Dead Cell Apoptosis Kit with Alexa Fluor® 488 annexin V and propidium iodide (Invitrogen, V13241). Phosphatidylserine was visualized by flow cytometry following the manufacturer’s instructions. The assay was done in response to SAB298 (0.5 µM and 1 µM, 24 hrs), compared to DMSO (negative control) or camptothecin (10 µM), as a positive control. In addition, we used the 96-well colorimetric Caspase 3 Assay kit (Millipore Sigma) to measure caspase activity in response to increasing concentrations of SAB298, and western blotting for apoptotic markers, such as cleaved PARP. […]
www.oncotarget.com Oncotarget, Supplementary Materials
A novel anti-melanoma src-family kinase inhibitor
Supplementary Figure 1: Apoptosis in response to SAB298. […]
melanoma cells treated for 24 hrs with SAB298 (0.5 and 1 µM). (C) A bar plot showing the differential levels of annexin positive cells in response to SAB298. (D) Caspase activity in response to SAB298 of four different cell lines (YUSIV, YUSIK, YUGASP and YUSEEP).
(1 picture or pasted object on this page, not shown here)

Assay [3] concerns YUSIT1 melanoma cells. In words: CellTiter-Glo Luminescent Cell Viability Assay. How it is done:
(§1) The melanoma cells were grown in OptiMEM (Invitrogen, Carlsbad, CA) supplemented with 5% fetal calf serum and antibiotics. The normal human melanocytes (NBMEL) were grown in medium supplemented with bFGF, IBMX and dbcAMP [32]. Most of the Yale melanoma cell lines were characterized by next-generation sequencing (Supplementary Table 2).
(§2) Cell proliferation was measured with the CellTiter-Glo® Luminescent Cell Viability Assay (Promega Corporation, Madison, WI). Melanoma cells were seeded in 96-well plates in triplicate or quadruplet wells, with increasing concentrations of kinase inhibitors for 72 hrs. The rate of proliferation was also tested after knockdown of different SRC-family kinases (SFK) with hairpin lentivirus shRNA as indicated. […] The statistical significance of synergism of response to drug combinations was evaluated by following Chou and Talalay algorithm. See also details in Supplementary Material.
Background: In ATP-based viability assays light output follows the ATP content of the culture.

Assay [4] has as its system YUSIV melanoma cells. In words: CellTiter-Glo Luminescent Cell Viability Assay. As to the method: as §1, §2
The test system of assay [5] is YUPEET melanoma cells. In words: CellTiter-Glo Luminescent Cell Viability Assay. As to the method:
as §1, §2

Assay [6] concerns YUSEEP melanoma cells. Nature of the assay: CellTiter-Glo Luminescent Cell Viability Assay. The conditions noted are these: growth response. How it is done: as §1, §2
Assay [7] concerns YUROB melanoma cells. Nature of the assay: CellTiter-Glo Luminescent Cell Viability Assay. How it is done:
as §1, §2

Assay [8] concerns YUKIM melanoma cells. In words: CellTiter-Glo Luminescent Cell Viability Assay. How it is done:
as §1, §2

As to `Nc1ncnc2c1c(-c1ccc(Oc3ccccc3)cc1)nn2C[C@@H]1SSC[C@@H]1O` [SAB298, (3S, 4S)-3-((4-amino-3-(4-phenoxyphenyl)-1H-pyrazolo[3,4-d]pyrimidin-1-yl)methyl)-1,2-dithiolan-4-ol], the “pY416 SFK level” value in assay [1] is on record as “consistently suppressed; also recorded: downregulated pSFK Y416”. The “Apoptosis (annexin staining and caspase activity)” value in assay [2] is “induced apoptosis”. In addition, the IC50 in assay [3] (Homo sapiens, YUSIT1, BRAF V600K, cell viability, 72 hrs) came to 238 nM; in assay [4] (Homo sapiens, PDE8A-RAF1 fusion, cell viability, 72 hrs), 81 nM; in assay [5] (Homo sapiens, BRAF V600E, cell viability, 72 hrs) it was 55 nM; in assay [7] (Homo sapiens, 72 h, YUROB, HRAS Q61K, cell viability, 72 hrs, read-out: IC50) it was 696 nM; in assay [7] (Homo sapiens, YUROB HRAS Q61K, Variation 2 (0 effect omitted), read-out: Dm (dose for median effect, median-effect equation)), 1860 nM; in assay [7] (Homo sapiens, YUROB HRASQ61K, Variation 1 (0 effect coded 1E-6), read-out: Dm (dose for median effect, median-effect equation)), 5180 nM. Besides, the IC50 in assay [7] (YUROB, HRAS Q61K, cell viability, 72 hrs, read-out: IC50) turned out to be 1250 nM; in assay [8] (Homo sapiens, NRAS Q61R, cell viability, 72 hrs), 561 nM. For the same molecule, the AUC1 in assay [3] (YUSIT1, growth response) came out at 166; in assay [4] (growth response) it was 656; in assay [5] (growth response), 672; in assay [6], 292; in assay [7] (YUROB, growth response) it was 148; in assay [8] (growth response) it was 173. Besides, the AUC2 came out at 32 in assay [3] (YUSIT1, growth response); 10 in assay [4] (growth response); 7 in assay [5] (growth response); 40 in assay [6]; 9 in assay [7] (YUROB, growth response); 60 in assay [8] (growth response).
